ChEMBL document CHEMBL4831504, “Rearranged Diels-Alder Adducts and Prenylated Flavonoids as Potential PTP1B Inhibitors from Morus nigra” (J Nat Prod, 2021)

Tests used:
[1] = target: T1, Tyrosine-protein phosphatase non-receptor type 1 (Homo sapiens) (UniProt P18031); test: Inhibition of recombinant PTP1B catalytic domain (unknown origin) assessed as reduction in pNP formation using pNPP as substrate at 20 ug/ml by absorbance based analysis relative to control; details: dose 20.0 µg/ml
T1 sequence (whole entry): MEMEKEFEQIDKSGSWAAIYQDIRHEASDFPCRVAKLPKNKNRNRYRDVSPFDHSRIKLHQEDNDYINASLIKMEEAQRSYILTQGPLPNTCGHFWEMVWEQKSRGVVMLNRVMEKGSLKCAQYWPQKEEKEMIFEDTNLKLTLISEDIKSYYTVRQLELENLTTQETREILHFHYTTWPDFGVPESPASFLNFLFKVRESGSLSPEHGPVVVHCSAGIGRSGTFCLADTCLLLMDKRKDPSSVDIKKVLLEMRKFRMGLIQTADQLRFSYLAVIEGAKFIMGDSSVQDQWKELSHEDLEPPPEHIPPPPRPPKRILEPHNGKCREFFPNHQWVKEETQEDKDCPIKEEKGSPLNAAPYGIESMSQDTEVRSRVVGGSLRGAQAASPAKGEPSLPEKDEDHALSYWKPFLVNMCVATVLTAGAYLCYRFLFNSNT

[2] = target: T2, Tyrosine-protein phosphatase non-receptor type 1 (Homo sapiens, UniProt P18031); test: Inhibition of recombinant PTP1B catalytic domain (unknown origin) assessed as reduction in pNP formation using pNPP as substrate by absorbance based analysis
T2 sequence (P18031 whole entry): T1 sequence (whole entry)

| Compound | inhibition [1] [%] | IC50 [2] [µM] |
| --- | --- | --- |
| CC(C)=C[C@H]1Oc2cc(O)ccc2-c2oc3cc(O)ccc3c(=O)c21 | 45.4 | ≥ 50 |
| CC(C)=CCc1c(-c2ccc(O)cc2O)oc2cc3c(c(O)c2c1=O)C=CC(C)(C)O3 [CUDRAFLAVONE B] | 70.9 | 20 |
| CC(C)=CCc1c(-c2ccc(O)cc2O)oc2c3c(cc(O)c2c1=O)OC(C)(C)C=C3 [MORUSIN] | 71.5 | 22.1 |
| CC(C)=CCc1c(O)cc(-c2cc3ccc(O)cc3o2)cc1O [MORACIN C] | 90.6 | 10.2 |

Other lines, results leading:

| inhibition [1] [%] | IC50 [2] [µM] | Compound |
| --- | --- | --- |
| 93.3 | 7.7 | CC(C)=CCc1cc(-c2oc3c(CC=C(C)C)c(O)cc(O)c3c(=O)c2CC=C(C)C)c(O)cc1O |
| 39.1 | ≥ 50 | CC1(C)Oc2cc3oc(-c4cc(O)cc(O)c4)cc3cc2CC1O (stereo not drawn) [(+/-)-MORACIN P] |
| 97 | 1.8 | CC(C)=CCc1c(O)ccc(C(=O)Oc2cc(/C=C/c3ccc(O)cc3O)cc(O)c2-c2cc(C)cc(-c3ccc(O)cc3O)c2)c1O |
| 95.8 | 5.3 | CC(C)=CCC/C(C)=C/Cc1c(O)cc(O)c2c(=O)c(CC=C(C)C)c(-c3ccc(O)cc3O)oc12 |
| 99.2 | 1.3 | CC(C)=CCc1c(O)ccc(C(=O)Oc2cc(-c3cc4ccc(O)cc4o3)cc(O)c2-c2cc(C)cc(-c3ccc(O)cc3O)c2)c1O |
| 77.6 | 12.5 | CC(C)=CCc1cc(-c2oc3cc(O)cc(O)c3c(=O)c2CC=C(C)C)c(O)cc1O |
